Molecules are shown by their SMILES.

The text below walks through data of patent publication US20220265775A1, “COMPOSITIONS AND METHODS FOR TREATING PULMONARY EDEMA OR LUNG INFLAMMATION” (priority 2019, published 2022).

This experiment deals with RLE-6TN cells. Briefly: RLE-6TN cell survival under hyperoxia and recovery, viable cells counted by trypan blue exclusion. Format: cell-based, rat. The method, then:
FIG. 7. […] The cells were cultured in DMEM/F12 with 10% FBS in 21% O2 and 5% CO2 overnight. […] The viable cells are counted immediately after 72-hour hyperoxia exposure. Cell viability is assessed with trypan blue. The amount of viable cells under specific conditions is presented as a percentage of the cell number from hyperoxia alone. Data are mean±s.d. of four independent experiments with *=P<0.05; **=P<0.01.
FIG. 8. […] In both (A) and (B), the number of viable cells under specific conditions is presented as a percentage of the cell number related to hyperoxia alone in the same experiment. Data are mean s.d. of four independent experiments with *=P<0.05; **=P<0.01.
FIG. 10. HO-1 upregulation is required for T3-increased RLE-6TN cell survival in hyperoxia. […] The cells were then collected for Western Blot analysis. (B) The cells were incubated in 21% O2 and 5% CO2 for 72 hours in the present of HO-1 inhibitor Tin Protoporphyrin IX (10^−6M). […] Cell viability is assessed with trypan blue. The number of viable cells under specific conditions is presented as a percentage of the cell number related to hyperoxia alone. Data are mean±s.d. of three independent experiments with *=P<0.05; **=P<0.01.
FIG. 11. PI3K inhibitor wortmannin blocked T3-induced cell survival in hyperoxia. […] Cell viability is assessed with trypan blue. The number of viable cells under specific conditions is presented as a percentage of the cell number related to hyperoxia alone. Data are mean±s.d. of four independent experiments with *=P<0.05; **=P<0.01.
At the end of the hyperoxia exposure period, the viable cells were counted by trypan blue dye exclusion.

`C=Cc1c2[n-]c(c1C)/C=c1\[n-]/c(c(C)c1C=C)=C\c1[n-]c(c(CCC(=O)O)c1C)C=c1[n-]/c(c(C)c1CCC(=O)O)=C\2.[Sn+4]` [Tin protoporphyrin, Tin Protoporphyrin IX]: under “21% O2 for 72 hours, Tin Protoporphyrin IX 10^−6M”, the “AT2 cell number in room air” value is “no effect on AT2 cell number in room air”. For the setting “90% O2 72 hours, T3 10^−6M with Tin Protoporphyrin IX 10^−6M”, the “effect on T3-caused increase in cell survival in hyperoxia” value is “blocked the T3-caused increase in cell survival and augmented cell death”.
`N[C@@H](Cc1ccc(Oc2cc(I)c(O)c(I)c2)c(I)c1)C(=O)O` [rT3]: where the note is “90% oxygen for 24 or 48 hours, compound present only during recovery in 21% O2”, the “number of viable AT2 cells at 48 hours of recovery” value was “no protective effect”. For the same compound, the “effect on cell survival under hyperoxia” value (90% oxygen for 72 hours, 10^−6M) is given as “no role in cell survival”.
